Patent US11021688B2, “Derivation of human skin organoids from pluripotent stem cells” (INDIANA UNIVERSITY RESEARCH AND TECHNOLOGY CORPORATION, priority 2015, dated 2021)

Assays:
Assay type in all cases: cell-based, human
[1] = test system: WA25 hESC and mND2-0 hiPSC aggregates; experiment: Keratinocyte (non-neural ectoderm) induction in hPSC aggregates in 3D culture; settings: n=40 aggregates per cell line across 4 experiments
Description: We sought to develop a novel human non-neural induction protocol that could generate skin organoids. Human pluripotent stem cells of the WA25 cell line were dissociated in Essential 8 (E8) culture medium into single cells. Approximately 5000 cells were plated in each well of a 96-well V-bottom plate. Following 24 hours in culture, pluripotent cell aggregates that formed were transferred to 96-well U-bottom plates and cultured in a differentiation medium in the presence of Matrigel. This was considered “day 0” of differentiation (see FIG. 1). In comparing our mouse pluripotent stem cell (mPSC) system with our human (hPSC) system, it was observed that hPSCs appear to produce different endogenous signaling molecules that must be added as exogenous factors for mPSC cultures. Assays were performed to identify key factors dictating non-neural ectoderm induction in hPSC aggregates. It was determined that treating hPSC aggregates with the TGF signaling inhibitor SB-431542 in a chemically-defined medium with or without a low concentration of BMP4 (<5 ng/ml) (CDM; Table 1) produces a surface epithelium of TFAP2^+ (AP2) non-neural ectoderm cells (FIGS. 3A-3F). After a 10-12 day incubation, the aggregates were transferred to a floating culture on low-cell attachment plates in organoid maturation medium (OMM; see Table 2). […]

hPSC-derived aggregates [2] = experiment: Structures formed under treatment plans during days 0-12 of differentiation; settings: treatment after initial 10 μM SB+4 ng/ml FGF; with or without insulin
Text: A-b, Treatment conditions during days 0-12 were: no treatment (NT), LDN (from d4-d12), LDN/FGF (from d4-d12), and LDN/FGF (from d4-d12)+CHIR (from d8-d12). From days 22-55, skin organoids formed in LDN/FGF and LDN/FGF/CHIR conditions with or without insulin. […] We detached the droplet embedded aggregates from the plate and placed them in a rotating or shaking floating culture in OMM for up to 60 days. By 30-55 days of culture, skin organoids consisted of KRT5^+ basal keratinocytes and PDGFRa^+ dermal fibroblasts (FIGS. 7A-7C). The skin organoids developed as a cyst with an inner layer of epidermis and an outer layer of dermis. We next wondered what mechanism controlled the induction of skin organoids and tested various treatment plans with or without insulin in the CDM during days 0-12 of differentiation (FIGS. 8A-8B). After 12 days, the aggregates were transferred to Matrigel in OMM as previously mentioned. […] Intriguingly, without insulin, the skin organoids were 2.5-3.5 times larger on average than insulin treated aggregates. We chose to continue our analysis with FGF/LDN and FGF/LDN/CHIR (without insulin) treated aggregates.

[3] = test system: hPSC-derived skin organoids; experiment: Pigmentation of hair follicles in skin organoids; settings: pre-treated during days 8-12
Description: After 4 days of incubation, 25 μl of CDM containing a 250 ng ml^−1 FGF-2 (50 ng/ml final concentration) and 1 μM LDN-193189 (200 nM final concentration) was added to the pre-existing 100 μl of media in each well. After an additional 4 days (8 days total), 250 of CDM was added to the media. For some experiments, CDM containing 18 μM CHIR99021 (3 μM final concentration; Stemgent) was added to the pre-existing 125 μl of media in each well. During day 12 transfer to OMM, aggregates were resuspended in ice cold undiluted GFR Matrigel and placed in approximately 25 μl droplets on the surface of a 100 mm bacterial culture plate. After at least 30 minutes of incubation at 37° C., the droplets were bathed in 10 ml of OMM. To avoid Matrigel droplet induction, the aggregates can be washed and plated individually into each well of a 24-well low cell adhesion plate in OMM containing 1% GFR Matrigel. After 18 days of differentiation, the CHIR was removed from the medium by washing and the droplet aggregates were moved to a floating culture. Droplets were carefully dislodged using a wide-mouth 1000P tip and transferred to 75 ml of fresh OMM in a 125 ml disposable spinner flask (Corning). Spinner flasks were maintained on an in-incubator stir plate (Thermo Scientific) at 65 RPM for up to 180 days of differentiation. […]

[4] = test system: hPSC-derived skin organoids; experiment: Skin organoid size with or without insulin in the differentiation medium; settings: LDN/FGF and LDN/FGF/CHIR conditions; n=6 organoids/condition
Text: A-b, Treatment conditions during days 0-12 were: no treatment (NT), LDN (from d4-d12), LDN/FGF (from d4-d12), and LDN/FGF (from d4-d12)+CHIR (from d8-d12). From days 22-55, skin organoids formed in LDN/FGF and LDN/FGF/CHIR conditions with or without insulin.
We detached the droplet embedded aggregates from the plate and placed them in a rotating or shaking floating culture in OMM for up to 60 days. By 30-55 days of culture, skin organoids consisted of KRT5^+ basal keratinocytes and PDGFRa^+ dermal fibroblasts (FIGS. 7A-7C). The skin organoids developed as a cyst with an inner layer of epidermis and an outer layer of dermis. We next wondered what mechanism controlled the induction of skin organoids and tested various treatment plans with or without insulin in the CDM during days 0-12 of differentiation (FIGS. 8A-8B). After 12 days, the aggregates were transferred to Matrigel in OMM as previously mentioned. […] Intriguingly, without insulin, the skin organoids were 2.5-3.5 times larger on average than insulin treated aggregates. We chose to continue our analysis with FGF/LDN and FGF/LDN/CHIR (without insulin) treated aggregates.

hPSC-derived aggregates [5] = experiment: Mesoderm induction (Brachyury immunohistochemistry) in hPSC aggregates
Description: Representative Brachyury (BRA) immunohistochemistry in day 4 aggregates treated with 10 ng/ml BMP4 (a), 10 μM SB (b), and 10 μM SB+2.5 ng/ml BMP4 (c) on day 0. Scale bars, 50 μm.
With human PSCs, TGFβ inhibition and endogenous BMP signaling promotes formation of TFAP2+ ECAD+ surface ectoderm by 3-6 days of differentiation.

NC(=O)c1ccc(-c2nc(-c3ccc4c(c3)OCO4)c(-c3ccccn3)[nH]2)cc1 [SB, SB-431542]
aggregates generating a 3D spheroid comprising TFAP2+KRT5+ keratinocytes [1]: 100%

c1ccc2c(-c3cnn4cc(-c5ccc(N6CCNCC6)cc5)cnc34)ccnc2c1 [LDN, LDN-193189]
structures formed by aggregates (hPSC-derived aggregates [2]): primarily formed keratinocyte cyts

Cc1c[nH]c(-c2cnc(NCCNc3ccc(C#N)cn3)nc2-c2ccc(Cl)cc2Cl)n1 [CHIR99021]
organoids producing pigmented hair follicles [3]: 75%

insulin: insulin component of the chemically-defined differentiation medium (CDM)
size (long-axis diameter) of skin organoids in insulin-free conditions relative to conditions with insulin [4]: 2.5-3.5 times

B1: bone morphogenetic protein-4 (protein, UniProt P12644 293-408, looked up)
Bone morphogenetic protein 4: SPKHHSQRARKKNKNCRRHSLYVDFSDVGWNDWIVAPPGYQAFYCHGDCPFPLADHLNSTNHAIVQTLVNSVNSSIPKACCVPTELSAISMLYLDEYDKVVLKNYQEMVVEGCGCR
notes: agonist of BMP signaling
induction of mesodermal (BRA+) cells (hPSC-derived aggregates [5]; BMP treatment alone): mesoderm is induced | induction of mesodermal (Brachyury+) cells (hPSC-derived aggregates [5]; low concentration of BMP-4 during non-neural ectoderm induction): not induced
